Experimental data from patent US20170348258A1, “3-Amino Benzamide Derivative Serving As B-Lactam Auxiliary Antibiotic, Preparation Method and Use Thereof” (THE HONG KONG POLYTECHNIC UNIVERSITY, priority 2014, published 2017).

Assays:
[1] = tested on: B. subtilis 168 cells; assay: Effects on the morphology of B. subtilis cells; format: cell-based; conditions: for average cell length of B. subtilis: compound at half of MIC (1.56 μM F332, 0.78 μM F361), untreated 3.5±0.7 μm; for average cell length of B. subtilis / lengthening of cell length of B. subtilis versus untreated: 4 hours; for lengthening of cell length of B. subtilis versus untreated: compound at half of MIC; for filamentation of B. subtilis 168 cells: sub-lethal concentrations
Method: The log-phase culture of B. subtilis was tested with the two compounds with a final concentration of half of MIC value. A 1% DMSO solution was used as the control.

[2] = biological target: T1, S. aureus FtsZ (Staphylococcus aureus, UniProt P0A031); assay: Light scattering assay (FtsZ polymerization); format: biochemical; conditions: S. aureus FtsZ 12 μM, 1 mM GTP, serial dilutions of compound
T1 construct: inferred from capture on a nickel chelating column and imidazole elution; made in house; host or cells: E. coli BL21
T1 sequence (P0A031 1-390): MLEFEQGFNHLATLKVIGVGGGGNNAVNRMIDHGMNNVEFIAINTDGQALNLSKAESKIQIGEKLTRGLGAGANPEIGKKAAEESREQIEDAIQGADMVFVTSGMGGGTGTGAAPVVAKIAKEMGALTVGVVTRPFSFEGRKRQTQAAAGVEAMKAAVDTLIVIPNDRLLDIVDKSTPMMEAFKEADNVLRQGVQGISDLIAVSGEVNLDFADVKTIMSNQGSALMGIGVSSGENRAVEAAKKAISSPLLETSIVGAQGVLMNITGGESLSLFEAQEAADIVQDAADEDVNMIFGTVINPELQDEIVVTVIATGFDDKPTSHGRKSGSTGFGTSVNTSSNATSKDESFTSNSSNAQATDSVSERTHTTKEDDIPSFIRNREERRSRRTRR
Method: Light scattering assay was used to determine the degree of FtsZ polymerization by measuring the 90° light scattering signal using a fluorescence spectrometer (Perkin-Elmer, USA). The excitation and emission wavelengths were set to 600 nm with a slit width of 5 nm. S. aureus FtsZ (12 μM) was incubated with serial dilutions of the compounds in 50 mM MOPS buffer (pH 6.8) at 25° C. for 10 minutes. The control contained 1% DMSO only. KCl (final concentration: 50 mM) and MgCl2 (final concentration: 10 mM) were then added to the mixture. The mixture was incubated at 37° C. for 8 minutes in order to establish a baseline. A final concentration of 1 mM GTP was added and the light scattering signal was measured for 1,500 seconds. The relative light scattering signals in experimental set-up were calculated with reference to the light scattering signal in control experiment. Three independent experiments were carried out for each compound concentration.

[3] = biological target: T1, S. aureus FtsZ; assay: GTPase activity assay; format: biochemical; conditions: FtsZ 7.5 μM, GTP 500 μM, 37° C. 30 minutes
Method: The GTPase activity of S. aureus FtsZ was determined in a 96-well microplate using a CytoPhos™ phosphate assay Biochem Kit™ (Cytoskeleton, USA) which measured the concentration of inorganic phosphate released during the hydrolysis of GTP. Recombinant S. aureus FtsZ (7.5 μM) was incubated with serial dilutions of the compounds in 50 mM MOPS buffer (pH 6.5) at 25° C. for 10 minutes. The control contained 1% DMSO only. KCl (final concentration: 200 mM) and MgCl2 (final concentration: 5 mM) were then added to the mixture. The mixture was incubated with GTP (final concentration: 500 μM) at 37° C. for 30 minutes. The insoluble polymer was removed by centrifugation at 13,500 rpm at room temperature for 1 minute. 80 μL supernatant was transferred to a well of a 96-well microplate and incubated with 120 μL of Cytophos reagent at room temperature for 10 minutes. The inorganic phosphate in the mixture was determined by measuring the absorbance at 650 nm in a 96-well microplate reader (BioRad 680). The results from the samples were reported with reference to the control. Three independent experiments were carried out for each compound concentration.

[4] = tested on: MRSA strain USA300#757; assay: Fractional Inhibitory Concentration Index (FICI) determination; format: cell-based, S. aureus
Method: The bacterial strains used in this study were clinically isolated MRSA strains USA300#757 and #2960 which were obtained from our laboratory. Determination of the Fractional Inhibitory Concentration Index (FICI) was adopted by the Müller-Hinton broth (MHB) dilution method as previously described. Twelve serial two-fold dilutions of PC190723, F332 and F361 were prepared in the 96-well microplate with concentration ranging from 512 to 0.25 μg/mL. […] Lastly, the compounds and the β-lactams were mixed at a 1:1 ratio and subjected to two-fold dilution as described previously. Each microplate well contained 100 μL of MHB supplemented with compounds alone, β-lactams alone or the mixture of compounds and β-lactams. Overnight cultures of S. aureus in the Müller-Hinton broth was diluted to OD595 of 0.08-0.1 in saline and added in each of the microplate well. The plates were incubated at 37° C. for 20 h. All tests were performed in duplicate and the inhibition of bacterial growth was determined by visualization. The FICI of compounds and β-lactams were calculated as followed: FICI=(MIC of combination of compound and β-lactam/MIC of compound alone)+(MIC of combination of compound and β-lactam/MIC of β-lactam alone).

[5] = tested on: MRSA strain USA300#2960; assay: as above; format: cell-based, S. aureus
Method: The bacterial strains used in this study were clinically isolated MRSA strains USA300#757 and #2960 which were obtained from our laboratory. Determination of the Fractional Inhibitory Concentration Index (FICI) was adopted by the Müller-Hinton broth (MHB) dilution method as previously described. Twelve serial two-fold dilutions of PC190723, F332 and F361 were prepared in the 96-well microplate with concentration ranging from 512 to 0.25 μg/mL. A series of two-fold dilutions of ampicillin, cloxacillin and cefuroxime were also prepared following the same procedure. Lastly, the compounds and the β-lactams were mixed at a 1:1 ratio and subjected to two-fold dilution as described previously. Each microplate well contained 100 μL of MHB supplemented with compounds alone, β-lactams alone or the mixture of compounds and β-lactams. Overnight cultures of S. aureus in the Müller-Hinton broth was diluted to OD595 of 0.08-0.1 in saline and added in each of the microplate well. The plates were incubated at 37° C. for 20 h. All tests were performed in duplicate and the inhibition of bacterial growth was determined by visualization. The FICI of compounds and β-lactams were calculated as followed: FICI=(MIC of combination of compound and β-lactam/MIC of compound alone)+(MIC of combination of compound and β-lactam/MIC of β-lactam alone).

Row | Structure (SMILES) | average cell length of B. subtilis [1] | lengthening of cell length of B. subtilis versus untreated [1] | filamentation of B. subtilis 168 cells [1] | effect on light scattering signal of FtsZ assembly (polymerization) [2] | effect on GTPase activity of S. aureus FtsZ [3] | FICI with Ampicillin [4] | FICI with Cefotaxime [4] | FICI with Cefuroxime [4] | FICI with Cloxacillin [4] | FICI with Meropenem [4] | FICI with Ampicillin [5] | FICI with Cefotaxime [5] | FICI with Cefuroxime [5] | FICI with Cloxacillin [5] | FICI with Meropenem [5]
1 | CCCCCCCCCNc1ccc(F)c(C(N)=O)c1F [Compound F332, 2,6-difluoro-3-(nonylamino)benzamide] | 11.7±4.5 μm | three-fold lengthening | cause filamentation | inhibit the light scattering of FtsZ assembly | no significant change of the GTPase activity | 0.52 | 0.13 | 0.09 | 1.02 | 1.06 | 0.28 | 0.38 | 0.38 | 1.02 | 0.28
2 | CCCCCCCCCN(C)c1ccc(F)c(C(N)=O)c1F [Compound F361, 2,6-difluoro-3-(methyl(nonyl)amino)benzamide] | 21.1±1.8 μm | six-fold lengthening | cause filamentation | inhibit the light scattering of FtsZ assembly | no significant change of the GTPase activity | – | 0.38 | – | – | 1.13 | – | 1.00 | – | – | 0.28
